Drawing on PubChem BioAssay (NCI), this text covers TGI for twelve compounds.

Each structure is given as a SMILES string.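 1) Cells in 96-well plates. 2) Compound, 48 h, 5 concentrations. 3) Linear interpolation between surrounding doses. 4) Unreached endpoint = highest concentration. At the TGI there is no net growth.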

Common to all, as to experiment: inhibition of tumour cell growth, NCI panel, 48 h
Assay [1] concerns A549 NSCLC.
Assay [2] concerns MDA-N.
For assay [3], the system named is DU-145 prostate.
Assay [4] deals with TK-10 renal.
In assay [5] the test system is SK-MEL-28 melanoma.
Assay [6] concerns ACHN renal.
Assay [7] relates to OVCAR-5 ovarian.
Assay [8] has as its system HCC-2998 colon.
In assay [9] the test system is MOLT-4 leukemia.
In assay [10] the test system is RPMI-8226 leukemia.
For assay [11], the system named is HCT-15 colon.
Assay [12] has as its system LOX IMVI melanoma.
Assay [13] deals with SK-MEL-2 melanoma.
Assay [14] has as its system UACC-257 melanoma.
Assay [15] concerns SF-268 CNS.
Assay [16] relates to MALME-3M melanoma.
For assay [17], the system named is MDA-MB-231 breast.
The subject of assay [18] is U251 CNS.
Assay [19] relates to OVCAR-8 ovarian.
The subject of assay [20] is NCI/ADR-RES ovarian.

For the compound `COc1ccc(NC(=O)C(C#N)=C(SC)SC)cc1`, the TGI in assay [1], in assay [2], in [3], in assay [4], in assay [5] and in assay [6] was greater than 100 µM in each case. Further, the TGI in assay [7], in assay [8], in assay [9], in [10], in [11] and in assay [12] was greater than 100 µM throughout. Further, the TGI in assay [13], in [14], in assay [15], in assay [16], in [17] and in [18] was greater than 100 µM throughout.

Consider `C1=CCC[C@@H]2CN3CCCC/C=C\CCCC[C@H]4C[C@H](CN(CCCCCCCC1)C4)[C@H]2CC3`, for which the TGI in [1] was 17.8 µM; in assay [2], 16.2 µM; in assay [3], greater than 50 µM; in [4] it was 15.8 µM; in assay [5], 14.7 µM; in assay [6], 17 µM. In addition, the TGI in assay [7] came to 23.7 µM; in assay [8], 14.4 µM; in assay [9], 21.2 µM; in assay [19], 17.5 µM; in assay [10] it was 16.7 µM; in assay [11], 18.3 µM. For the same compound, the TGI in assay [12] was found to be 16 µM; in [13], 15.9 µM; in [14], 18.1 µM; in [15] it was 21.3 µM; in assay [16], 17.5 µM; in [17], 16.4 µM. The TGI in [18] was 15.4 µM.

Regarding `Cc1cc(C#N)c(Nc2ccc(F)cc2[N+](=O)[O-])s1`, the TGI in assay [1], in assay [2], in assay [3], in assay [5], in [6] and in assay [7] was greater than 100 µM each time. The TGI in assay [20], in [8], in [9], in assay [19], in [10] and in assay [11] was greater than 100 µM each time. Moreover, the TGI in assay [14] is greater than 100 µM; in assay [15], greater than 100 µM; in assay [16] it was greater than 100 µM; in assay [17], 68.8 µM; in assay [18] it was greater than 100 µM.

Take `CN(C)/C=C/c1c2c(nc3ccccc13)C(=O)c1cccnc1C2=O`: the TGI turned out to be 2.59 µM in assay [1]; 1.92 µM in assay [2]; 1.47 µM in [3]; 4.03 µM in assay [4]; 1.84 µM in [5]; 2.28 µM in assay [6]. The TGI was 3.95 µM in assay [7]; 1.9 µM in assay [20]; 2.6 µM in [8]; 6.98 µM in [9]; 3.2 µM in assay [19]; 6.27 µM in assay [10]. The TGI in assay [11] is 1.07 µM; in assay [13], 4.1 µM; in assay [14] it was 1.8 µM; in [15], 4.02 µM; in [16], 2.26 µM; in assay [17] it was greater than 100 µM. The TGI in assay [18] stood at 5.9 µM.

For `O=C(O)c1ccccc1/C=C1/Cc2ccc3c(c2C1=O)CCC3`, the TGI in assay [1], in assay [2], in [3], in [4], in assay [5] and in [6] was greater than 100 µM throughout. Also, the TGI in [7] was greater than 100 µM; in assay [20] it was greater than 100 µM; in [8], 72.1 µM; in assay [9] it was greater than 100 µM; in [19], greater than 100 µM; in assay [10] it was 57.4 µM. The TGI in assay [11] was greater than 100 µM; in [12] it was 39.5 µM; in [13], 44.9 µM; in assay [14], greater than 100 µM; in assay [15] it was greater than 100 µM; in assay [16], greater than 100 µM. The compound further came in with a TGI in assay [18] greater than 100 µM.

Regarding `CCOP(=O)(Nc1ccc(-c2ccc(N)cc2)cc1)OCC`, the TGI in [1], in assay [2], in [3], in assay [4], in assay [5] and in [6] was greater than 100 µM throughout. The TGI in assay [7], in [20], in assay [8], in assay [9], in assay [19] and in assay [10] was greater than 100 µM each time. In addition, the TGI in assay [11], in [13], in assay [14], in assay [15], in assay [16] and in assay [17] was greater than 100 µM each time. Also, in assay [18], the TGI is greater than 100 µM.

On to `CCOC(=O)/C(=C\c1cn(C(C)=O)c2ccccc12)P(C)(=O)OCC` (stereo not given), for which the TGI in [1], in assay [2], in assay [3], in assay [5], in [6] and in assay [7] was greater than 100 µM throughout. Also, the TGI in assay [20] was greater than 100 µM; in [8] it was 94.3 µM; in assay [9], greater than 100 µM; in [19], greater than 100 µM; in assay [10], greater than 100 µM; in [11], greater than 100 µM. The TGI was greater than 100 µM in assay [13]; 50.5 µM in assay [15]; greater than 100 µM in [16]; 81.7 µM in assay [17]; greater than 100 µM in assay [18].

`C/C=C\C(CC(=O)NCCC1CN(C(=O)OCc2ccccc2)c2ccccc21)CC(=O)OC` (stereo not given): the TGI in [1], in [2], in assay [3], in [4], in [5] and in [6] was greater than 100 µM throughout. In addition, the TGI in assay [7], in assay [20], in assay [8], in assay [9], in assay [19] and in assay [10] was greater than 100 µM each time. Moreover, the TGI in assay [11], in assay [13], in assay [14], in assay [15], in [16] and in assay [17] was greater than 100 µM in each case. Besides, the TGI in assay [18] was greater than 100 µM.

Turning to `COC(=O)CCC(=O)c1ccc2c(c1)CC1(C2)Cc2ccc(C(=O)CCC(=O)OC)cc2C1`, the TGI in assay [1], in assay [2], in assay [4], in assay [6], in assay [7] and in assay [20] was greater than 100 µM in each case. Also, the TGI in assay [8], in assay [9], in assay [19], in assay [10], in [11] and in assay [12] was greater than 100 µM throughout. Also, the TGI in assay [13] was 61 µM; in assay [14] it was greater than 100 µM; in assay [16], greater than 100 µM; in assay [17] it was greater than 100 µM; in assay [18], greater than 100 µM.

With `COc1ccc(/C=C2/SC(=Nc3ccccc3)N(NC(=O)Cc3ccccc3)C2=O)c(OC)c1`, the TGI in assay [1], in [2], in assay [3], in assay [4], in [5] and in assay [6] was greater than 100 µM each time. In addition, the TGI in [7], in [20], in [8], in assay [9], in assay [19] and in assay [10] was greater than 100 µM throughout. The TGI in assay [11], in assay [13], in [14], in assay [15], in assay [17] and in assay [18] was greater than 100 µM in each case.

As for `CC(C)(C)OC(=O)NCCC1CNc2ccccc21` (stereo not given), the TGI in [1], in assay [2], in [3], in assay [4], in assay [5] and in [6] was greater than 100 µM in each case. For the same compound, the TGI in assay [7], in [20], in [8], in [9], in [19] and in assay [10] was greater than 100 µM each time. Besides, the TGI in assay [11], in [13], in [14], in assay [15], in assay [16] and in [17] was greater than 100 µM in each case. In assay [18], the TGI was greater than 100 µM.

Consider `COC(=O)[C@@H]1C[C@]2(Br)c3ccccc3N(S(=O)(=O)c3ccccc3)[C@@H]2N1C(=O)OC`, for which the TGI in [1], in [2], in assay [3], in assay [4], in [5] and in assay [6] was greater than 100 µM each time. In addition, the TGI in assay [7], in assay [20], in assay [8], in assay [9], in assay [19] and in assay [10] was greater than 100 µM throughout. The TGI in [11] is greater than 100 µM; in [13], greater than 100 µM; in [14] it was 14.6 µM; in assay [15], greater than 100 µM; in assay [16], greater than 100 µM; in [17] it was greater than 100 µM. The TGI in assay [18] is greater than 100 µM.
